Laboratory results from patent US20260217767A1, “NOVEL A4B7 THIOETHER PEPTIDE DIMER ANTAGONISTS” (Protagonist Therapeutics, Inc., priority 2014, published 2026).
“And” between values parts separate entries of the source, which are not always exact repeats. Equal values may be shown once. *1 amine or outer side, *2 acyl side, *3 side chain or, on linkers, in order; H or OH if unused. Where a SMILES comes first, the peptide text is derived from it. Bridges are numbered along the chain shown (N, C = ends). Roman numbers before positions name the chains, in order. [ ]: non-standard residue; d: D form. Bip = N[C@@H](Cc1ccc(-c2ccccc2)cc1)C(=O)O; 1Nal = N[C@@H](Cc1cccc2ccccc12)C(=O)O; Diglycolyl = O=C(COCC(=O)[*:2])[*:1]; NMeR = CN[C@@H](CCCNC(=N)N)C(=O)O; Tic = O=C(O)[C@@H]1Cc2ccccc2CN1; β3hE = N[C@@H](CCC(=O)O)CC(=O)O; X1 = O=C(c1ccccc1C[*:2])[*:1]; Pen = CC(C)(S)[C@H](N)C(=O)O

Columns and labels:
α4β1 = biological target: T1, α4β1 (Homo sapiens, UniProt P05556+P13612); assay: α4β1-VCAM Competition ELISA; type: binding; conditions: thioether peptide dimers, Table 7; read-out: ELISA A4B1
T1 construct: purchased R&D Systems 5668-A4
Procedure, shortened: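 rh VCAM-1-Fc coated plates; α4β1 (final 60 nM) and peptide (final 100 μM) incubated 2 h at 37° C. in 50 mM Tris-HCl pH 7.6, 100 mM NaCl, 1 mM MnCl2 or MgCl2, 0.05% Tween-20. Bound integrin detected with anti-CD49d 9F10 and HRP anti-mouse IgG, TMB read at 450 nm.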

Jurkat E6.1 cells = Jurkat E6.1 cells (Homo sapiens, UniProt P05556+P13612); assay: α4β1-VCAM Cell Adhesion Assay; type: cell-based; conditions: thioether peptide dimers, Table 7; read-out: Cell Adhesion A4B1
Protocol: α4β1-VCAM Cell Adhesion Assay
Jurkat E6.1 cells (Sigma #88042803) were cultured in RPMI 1640 HEPES medium (Invitrogen #22400-089) supplemented with 10% serum (Fetal Bovine Serum, Invitrogen #16140-071), 1 mM sodium pyruvate (Invitrogen #11360-070), 2 mM L-glutamine (Invitrogen #25030-081) and Penicillin-Streptomycin (Invitrogen #15140-122) at 100 units of penicillin and 100 μg of streptomycin per ml. The cells were washed two times in DMEM medium (ATCC #30-2002) supplemented with 0.1% BSA, 10 mM HEPES pH 7 and 1 mM MnCl2. The cells were re-suspended in supplemented DMEM medium at a density of 4×10^6 cells/ml.
A Nunc MaxiSorp plate was coated with rh VCAM-1/CD106 Fc chimera (R&D #862-VC) at 400 ng per well in 50 μl per well in 1×PBS and incubated at 4° C. overnight. The solution was then removed by shaking, blocked with 250 μl per well PBS containing 1% BSA, and incubated at 37° C. for 1 hr. The solution was removed by shaking. Peptides were diluted by serial dilution in a final volume of 50 μl per well (2× concentration). To each well, 50 μl of cells (200,000 cells) were added and the plate was incubated at 37° C., 5% CO2 for 30-45 min to allow cell adhesion. The wells were washed manually three times (100 μl per wash) with supplemented DMEM. After the final wash, 100 μl/well of supplemented DMEM and 10 ul/well of MTT reagent (ATTC cat #30-1010K) were added. The plate was incubated at 37° C., 5% CO2 for 2-3 hrs until a purple precipitate is visible. 100 ul of Detergent Reagent (ATTC cat #30-1010K) is added to each well. The plate was covered from the light, wrapped in Parafilm to prevent evaporation, and left overnight at room temperature in the dark. The plate was shaken for 5 min and the absorbance at 570 nm is measured. To calculate the dose response, the absorbance value of control wells not containing cells was subtracted from each test well.

[1] = Simulated Intestinal Fluid (SIF) Stability Assay; type: in vitro ADME; conditions: 37° C., dimers, Table 7; for half-life at 22 μM / half-life: pig; for half-life at 22 μM: simulated intestinal fluid (SIF) with 1% porcine pancreatin, pH 6.5, porcine pancreatin; for SIF (Porcine) (half-life, min) / half-life: porcine pancreatin
Procedure, shortened: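 Percent peptide remaining over time was measured by LC-MS/MS as the peak-area ratio to internal standard, and a first-order decay fit gave half-life. Digests contained 22 μM peptide and 1% pancreatin in pH 6.5 FaSSIF buffer at 37° C. Aliquots were quenched in organic solvent with formic acid.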

T1 sequence (P13612 34-977 limits assumed): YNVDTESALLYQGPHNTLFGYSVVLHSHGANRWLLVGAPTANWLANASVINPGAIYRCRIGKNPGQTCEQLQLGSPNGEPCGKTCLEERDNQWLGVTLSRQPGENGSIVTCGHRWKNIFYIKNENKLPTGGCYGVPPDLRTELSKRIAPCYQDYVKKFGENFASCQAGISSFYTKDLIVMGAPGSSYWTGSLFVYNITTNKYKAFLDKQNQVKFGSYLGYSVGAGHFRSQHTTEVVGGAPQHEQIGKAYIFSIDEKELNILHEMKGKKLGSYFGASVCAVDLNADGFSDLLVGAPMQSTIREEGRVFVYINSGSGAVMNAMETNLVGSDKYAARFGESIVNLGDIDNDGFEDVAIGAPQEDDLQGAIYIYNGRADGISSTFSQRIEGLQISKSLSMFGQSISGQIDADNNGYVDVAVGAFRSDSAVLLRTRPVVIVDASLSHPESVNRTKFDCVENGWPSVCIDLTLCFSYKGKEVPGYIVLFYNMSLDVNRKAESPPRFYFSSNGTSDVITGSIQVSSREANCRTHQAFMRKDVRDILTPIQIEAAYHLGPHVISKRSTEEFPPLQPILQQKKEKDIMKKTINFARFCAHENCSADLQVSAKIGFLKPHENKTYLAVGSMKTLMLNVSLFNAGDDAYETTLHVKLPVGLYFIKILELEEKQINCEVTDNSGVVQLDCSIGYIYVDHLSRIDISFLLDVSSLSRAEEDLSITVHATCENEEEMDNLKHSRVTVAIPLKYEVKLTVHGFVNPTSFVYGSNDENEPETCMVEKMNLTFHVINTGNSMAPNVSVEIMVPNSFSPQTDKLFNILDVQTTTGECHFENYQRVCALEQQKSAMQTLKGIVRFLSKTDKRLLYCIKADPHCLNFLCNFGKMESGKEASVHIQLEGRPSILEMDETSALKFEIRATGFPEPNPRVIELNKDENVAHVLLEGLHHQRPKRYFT
T1 sequence (P05556 21-728 limits assumed): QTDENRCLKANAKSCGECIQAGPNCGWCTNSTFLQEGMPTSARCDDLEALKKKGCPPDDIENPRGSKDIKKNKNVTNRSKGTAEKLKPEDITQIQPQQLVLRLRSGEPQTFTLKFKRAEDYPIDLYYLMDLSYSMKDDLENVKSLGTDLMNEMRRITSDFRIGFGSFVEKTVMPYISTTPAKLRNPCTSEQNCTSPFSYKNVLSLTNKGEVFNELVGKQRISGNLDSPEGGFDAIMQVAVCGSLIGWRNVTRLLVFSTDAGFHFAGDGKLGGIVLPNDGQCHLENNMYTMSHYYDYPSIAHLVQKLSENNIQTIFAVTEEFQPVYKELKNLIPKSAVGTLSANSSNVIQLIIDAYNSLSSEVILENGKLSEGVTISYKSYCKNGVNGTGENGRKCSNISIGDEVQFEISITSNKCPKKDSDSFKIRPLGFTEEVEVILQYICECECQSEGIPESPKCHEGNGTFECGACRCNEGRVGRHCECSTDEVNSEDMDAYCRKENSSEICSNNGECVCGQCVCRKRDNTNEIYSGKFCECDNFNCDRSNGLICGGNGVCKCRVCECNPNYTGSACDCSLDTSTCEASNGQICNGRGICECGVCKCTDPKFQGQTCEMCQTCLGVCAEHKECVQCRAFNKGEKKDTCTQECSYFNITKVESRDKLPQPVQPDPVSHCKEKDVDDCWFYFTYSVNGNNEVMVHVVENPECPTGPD
Chain of Jurkat E6.1 cells (P13612 34-1032): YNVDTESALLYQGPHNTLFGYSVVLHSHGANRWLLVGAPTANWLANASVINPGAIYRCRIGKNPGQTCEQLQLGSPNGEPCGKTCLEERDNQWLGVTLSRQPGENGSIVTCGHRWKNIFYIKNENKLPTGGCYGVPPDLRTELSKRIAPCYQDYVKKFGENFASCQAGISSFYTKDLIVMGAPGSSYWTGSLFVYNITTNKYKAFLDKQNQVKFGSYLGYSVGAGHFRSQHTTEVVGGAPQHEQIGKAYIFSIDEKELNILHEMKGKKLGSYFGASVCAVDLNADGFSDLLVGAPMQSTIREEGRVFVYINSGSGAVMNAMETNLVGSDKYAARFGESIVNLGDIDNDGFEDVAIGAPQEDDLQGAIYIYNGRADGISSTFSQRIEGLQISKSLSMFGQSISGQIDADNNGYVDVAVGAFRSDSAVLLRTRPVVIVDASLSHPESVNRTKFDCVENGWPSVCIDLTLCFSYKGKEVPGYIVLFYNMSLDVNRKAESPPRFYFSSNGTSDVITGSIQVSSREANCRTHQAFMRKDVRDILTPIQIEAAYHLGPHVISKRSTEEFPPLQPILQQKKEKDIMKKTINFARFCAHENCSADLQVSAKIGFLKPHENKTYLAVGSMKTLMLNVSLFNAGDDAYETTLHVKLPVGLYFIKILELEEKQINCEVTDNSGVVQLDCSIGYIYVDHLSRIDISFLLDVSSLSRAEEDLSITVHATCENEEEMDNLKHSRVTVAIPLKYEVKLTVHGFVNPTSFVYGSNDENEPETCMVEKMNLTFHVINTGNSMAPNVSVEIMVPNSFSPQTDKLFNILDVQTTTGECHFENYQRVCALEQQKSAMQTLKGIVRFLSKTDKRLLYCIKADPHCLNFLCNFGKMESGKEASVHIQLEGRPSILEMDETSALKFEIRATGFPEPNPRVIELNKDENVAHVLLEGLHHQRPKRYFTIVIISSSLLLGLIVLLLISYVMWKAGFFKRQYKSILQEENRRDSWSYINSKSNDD
Chain of Jurkat E6.1 cells (P05556 21-798): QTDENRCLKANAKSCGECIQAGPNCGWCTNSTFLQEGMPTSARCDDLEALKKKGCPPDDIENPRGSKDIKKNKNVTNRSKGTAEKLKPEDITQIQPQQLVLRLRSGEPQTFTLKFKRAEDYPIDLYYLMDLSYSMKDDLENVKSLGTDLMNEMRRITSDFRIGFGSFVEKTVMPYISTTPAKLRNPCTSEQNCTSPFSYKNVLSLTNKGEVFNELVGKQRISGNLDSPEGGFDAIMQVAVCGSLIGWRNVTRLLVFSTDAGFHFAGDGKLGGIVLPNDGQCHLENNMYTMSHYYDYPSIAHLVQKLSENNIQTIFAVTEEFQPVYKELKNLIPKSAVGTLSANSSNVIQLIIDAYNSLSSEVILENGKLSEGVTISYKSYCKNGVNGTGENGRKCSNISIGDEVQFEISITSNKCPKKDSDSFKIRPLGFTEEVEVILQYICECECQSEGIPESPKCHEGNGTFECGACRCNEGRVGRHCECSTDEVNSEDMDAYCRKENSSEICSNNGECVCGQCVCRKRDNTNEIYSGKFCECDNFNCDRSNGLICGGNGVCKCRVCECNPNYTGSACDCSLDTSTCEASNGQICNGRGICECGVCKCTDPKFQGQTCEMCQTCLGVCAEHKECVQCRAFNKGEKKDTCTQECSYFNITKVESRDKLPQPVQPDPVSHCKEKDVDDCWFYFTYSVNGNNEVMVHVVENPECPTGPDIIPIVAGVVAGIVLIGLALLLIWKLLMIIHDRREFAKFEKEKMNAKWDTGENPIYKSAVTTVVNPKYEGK

half-life at 22 μM [1]	SMILES	IC50 (α4β1)	IC50 (Jurkat E6.1 cells)	SIF (Porcine) (half-life, min) [1]	half-life [1]
–	CC(C)C[C@@H]1NC(=O)[C@H]([C@@H](C)O)NC(=O)[C@H](CC(=O)O)NC(=O)[C@H](CO)NC(=O)[C@H](CCCNC(=N)N)N(C)C(=O)c2ccccc2CSC(C)(C)[C@@H](C(=O)N[C@@H](Cc2ccc(-c3ccccc3)cc2)C(=O)N[C@H](CCC(=O)O)C(=O)N[C@H](CCCCNC(=O)COCC(=O)NCCCC[C@@H](NC(=O)[C@@H](CCC(=O)O)NC(=O)[C@H](Cc2ccc(-c3ccccc3)cc2)NC(=O)[C@H]2NC(=O)[C@H](CC(C)C)NC(=O)[C@H]([C@@H](C)O)NC(=O)[C@H](CC(=O)O)NC(=O)[C@H](CO)NC(=O)[C@H](CCCNC(=N)N)N(C)C(=O)c3ccccc3CSC2(C)C)C(=O)O)C(=O)O)NC1=O [compound 208] (I: [NMeR]SDTL[Pen][Bip][dE][dK]-OH / II: [NMeR]SDTL[Pen][Bip][dE][dK]-OH; linker I:9-II:9 via Diglycolyl; linker I:N-I:6, II:N-II:6 via X1)	25 to 100 nM	> 100000 nM	–	> 3 h
–	CC(C)C[C@@H]1NC(=O)[C@H]([C@@H](C)O)NC(=O)[C@H](CC(=O)O)NC(=O)[C@H](CO)NC(=O)[C@H](CCCNC(=N)N)N(C)C(=O)c2ccccc2CSC(C)(C)[C@@H](C(=O)N[C@@H](Cc2c[nH]c3ccccc23)C(=O)N[C@H](CCC(=O)O)C(=O)N[C@H](CCCCNC(=O)COCC(=O)NCCCC[C@@H](NC(=O)[C@@H](CCC(=O)O)NC(=O)[C@H](Cc2c[nH]c3ccccc23)NC(=O)[C@H]2NC(=O)[C@H](CC(C)C)NC(=O)[C@H]([C@@H](C)O)NC(=O)[C@H](CC(=O)O)NC(=O)[C@H](CO)NC(=O)[C@H](CCCNC(=N)N)N(C)C(=O)c3ccccc3CSC2(C)C)C(=O)O)C(=O)O)NC1=O [compound 209] (I: [NMeR]SDTL[Pen]W[dE][dK]-OH / II: [NMeR]SDTL[Pen]W[dE][dK]-OH; linker I:9-II:9 via Diglycolyl; linker I:N-I:6, II:N-II:6 via X1)	100 to 1000 nM	> 100000 nM	–	> 3 h
> 3 h	CC(C)C[C@@H]1NC(=O)[C@H]([C@@H](C)O)NC(=O)[C@H](CC(=O)O)NC(=O)[C@H](CO)NC(=O)[C@H](CCCNC(=N)N)N(C)C(=O)c2ccccc2CSC(C)(C)[C@@H](C(=O)N[C@@H](Cc2cccc3ccccc23)C(=O)N[C@H](CCC(=O)O)C(=O)N[C@H](CCCCNC(=O)COCC(=O)NCCCC[C@@H](NC(=O)[C@@H](CCC(=O)O)NC(=O)[C@H](Cc2cccc3ccccc23)NC(=O)[C@H]2NC(=O)[C@H](CC(C)C)NC(=O)[C@H]([C@@H](C)O)NC(=O)[C@H](CC(=O)O)NC(=O)[C@H](CO)NC(=O)[C@H](CCCNC(=N)N)N(C)C(=O)c3ccccc3CSC2(C)C)C(N)=O)C(N)=O)NC1=O [compound 158] (I: [NMeR]SDTL[Pen][1Nal][dE][dK]-NH2 / II: [NMeR]SDTL[Pen][1Nal][dE][dK]-NH2; linker I:9-II:9 via Diglycolyl; linker I:N-I:6, II:N-II:6 via X1)	100 to 1000 nM	> 100000 nM	–	–
> 3 h	CC(C)C[C@@H]1NC(=O)[C@H]([C@@H](C)O)NC(=O)[C@H](CC(=O)O)NC(=O)[C@H](CO)NC(=O)[C@H](CCCNC(=N)N)N(C)C(=O)c2ccccc2CSC[C@@H](C(=O)N2Cc3ccccc3C[C@H]2C(=O)N[C@H](CCC(=O)O)C(=O)N[C@H](CCCCNC(=O)COCC(=O)NCCCC[C@@H](NC(=O)[C@@H](CCC(=O)O)NC(=O)[C@@H]2Cc3ccccc3CN2C(=O)[C@@H]2CSCc3ccccc3C(=O)N(C)[C@@H](CCCNC(=N)N)C(=O)N[C@@H](CO)C(=O)N[C@@H](CC(=O)O)C(=O)N[C@@H]([C@@H](C)O)C(=O)N[C@@H](CC(C)C)C(=O)N2)C(N)=O)C(N)=O)NC1=O [compound 184] (I: [NMeR]SDTLC[Tic][dE][dK]-NH2 / II: [NMeR]SDTLC[Tic][dE][dK]-NH2; linker I:9-II:9 via Diglycolyl; linker I:N-I:6, II:N-II:6 via X1)	100 to 1000 nM	> 100000 nM	>180 min	–
–	CC(C)C[C@@H]1NC(=O)[C@H]([C@@H](C)O)NC(=O)[C@H](CC(=O)O)NC(=O)[C@H](CO)NC(=O)[C@H](CCCNC(=N)N)N(C)C(=O)c2ccccc2CSC[C@@H](C(=O)N2Cc3ccccc3C[C@H]2C(=O)N[C@H](CCC(=O)O)C(=O)N[C@H](CCCCNC(=O)COCC(=O)NCCCC[C@@H](NC(=O)[C@@H](CCC(=O)O)NC(=O)[C@@H]2Cc3ccccc3CN2C(=O)[C@@H]2CSCc3ccccc3C(=O)N(C)[C@@H](CCCNC(=N)N)C(=O)N[C@@H](CO)C(=O)N[C@@H](CC(=O)O)C(=O)N[C@@H]([C@@H](C)O)C(=O)N[C@@H](CC(C)C)C(=O)N2)C(=O)O)C(=O)O)NC1=O [compound 207] (I: [NMeR]SDTLC[Tic][dE][dK]-OH / II: [NMeR]SDTLC[Tic][dE][dK]-OH; linker I:9-II:9 via Diglycolyl; linker I:N-I:6, II:N-II:6 via X1)	100 to 1000 nM	> 100000 nM	–	> 3 h
–	CC(C)C[C@@H]1NC(=O)[C@H]([C@@H](C)O)NC(=O)[C@H](CC(=O)O)NC(=O)[C@H](CO)NC(=O)[C@H](CCCNC(=N)N)N(C)C(=O)c2ccccc2CSC[C@H](C(=O)N[C@@H](Cc2c[nH]c3ccccc23)C(=O)N[C@@H](CCC(=O)O)CC(=O)N[C@H](CCCCNC(=O)COCC(=O)NCCCC[C@@H](NC(=O)C[C@H](CCC(=O)O)NC(=O)[C@H](Cc2c[nH]c3ccccc23)NC(=O)[C@H]2CSCc3ccccc3C(=O)N(C)[C@@H](CCCNC(=N)N)C(=O)N[C@@H](CO)C(=O)N[C@@H](CC(=O)O)C(=O)N[C@@H]([C@@H](C)O)C(=O)N[C@@H](CC(C)C)C(=O)N2)C(N)=O)C(N)=O)NC1=O [compound 156] (I: [NMeR]SDTL[dC]W[β3hE][dK]-NH2 / II: [NMeR]SDTL[dC]W[β3hE][dK]-NH2; linker I:9-II:9 via Diglycolyl; linker I:N-I:6, II:N-II:6 via X1)	25 to 100 nM	> 100000 nM	–	> 3 h

SMILES	half-life at 22 μM [1]	IC50 (α4β1)	IC50 (Jurkat E6.1 cells)	SIF (Porcine) (half-life, min) [1]	half-life [1]
CC(C)C[C@@H]1NC(=O)[C@H]([C@@H](C)O)NC(=O)[C@H](CC(=O)O)NC(=O)[C@H](CO)NC(=O)[C@H](CCCNC(=N)N)N(C)C(=O)c2ccccc2CSC(C)(C)[C@@H](C(=O)N[C@@H](Cc2ccc(-c3ccccc3)cc2)C(=O)N[C@H](CCC(=O)O)C(=O)N[C@H](CCCCN)C(N)=O)NC1=O [compound 178] (HELM PEPTIDE1{[meR].S.D.T.L.[Pen].[O=C([C@H](Cc1ccc(-c2ccccc2)cc1)N[*:1])[*:2]].[dE].[dK].[am]}|CHEM1{[O=C(c1ccccc1C[*:2])[*:1]]}$PEPTIDE1,CHEM1,1:R1-1:R1|PEPTIDE1,CHEM1,6:R3-1:R2$$$V2.0)	> 3 h	100 to 1000 nM	> 1000 nM	>180 (266), min and >180 min	–
